In patent US4486586A, “Cephalosporin derivatives” (Bristol-Myers Company, priority 1983, dated 1984) one finds MIC data, which are given here for three compounds.

The subject of assay [1] is Penicillinresistant S. aureus. The experiment in a line: MIC, two-fold serial agar dilution in Mueller-Hinton agar, group (G+)-Ib. The class given is cell-based. The note with it: Staphylococcus aureus, penicillin-resistant S. aureus, 5 strains, read-out: Geometric Mean of MIC, (G+)-Ib. On the procedure:
(§1) In the primary evaluation of the compounds of this invention, the Minimum Inhibitory Concentrations (MIC's) of the compounds were determined by the two-fold serial agar dilution method in Mueller-Hinton agar against 32 strains of test organisms in six groups.
(G+)Ib: Penicillinresistant S. aureus (5
In general terms: Agar dilution tests growth on a series of plates holding different concentrations.

In assay [2] the test system is Cephalothinresistant E. coli and Kl. pneumoniae. The experiment in a line: MIC, two-fold serial agar dilution in Mueller-Hinton agar, group (G-)-Ib. Type of assay: cell-based, E. coli (3 strains) and Kl. pneumoniae (3 strains). The note with it: read-out: Geometric Mean of MIC, (G-)-Ib. On the procedure:
as §1
(G-)Ib: Cephalothinresistant E. coli (3 strains) and Kl. pneumoniae (3

The subject of assay [3] is Penicillinsensitive S. aureus. The experiment in a line: MIC, two-fold serial agar dilution in Mueller-Hinton agar, group (G+)-Ia. Type of assay: cell-based. The note with it: Staphylococcus aureus, penicillin-sensitive S. aureus, 5 strains, read-out: Geometric Mean of MIC, (G+)-Ia. On the procedure: as §1
In assay [4] the test system is M. morganii, Ent. cloacae and Ser. marcescens. The experiment in a line: MIC, two-fold serial agar dilution in Mueller-Hinton agar, group (G-)-II. Type of assay: cell-based. The note with it: 5 strains, read-out: Geometric Mean of MIC, (G-)-II. Here is the method: as §1
(G-)II: M. morganii (1 strain), Ent. cloacae (2 strains) andSer.

Assay [5] relates to Cephalothinsensitive E. coli, Kl. pneumoniae and Pr. mirabilis. The experiment in a line: MIC, two-fold serial agar dilution in Mueller-Hinton agar, group (G-)-Ia. The class given is cell-based. The note with it: cephalothin-sensitive E. coli, 5 strains, read-out: Geometric Mean of MIC, (G-)-Ia. On the procedure:
as §1
(G-)Ia: Cephalothinsensitive E. coli (2 strains), Kl. pneumoniae (1
strain) and Pr. mirabilis (2 strains)

For the next assay, the system named is Ps. aeruginosa. The assay can be described thus: MIC, two-fold serial agar dilution in Mueller-Hinton agar, group (G-)-III. Type of assay: cell-based. The note with it: Pseudomonas aeruginosa, 7 strains, read-out: Geometric Mean of MIC, (G-)-III. Here is the method:
as §1
(G-)III: Ps. aeruginosa (7 strains)

In brackets after ≈: the same amount, converted by molar mass.

As usually defined, the MIC is the lowest concentration found to suppress growth. Take `Nc1nc(/C(=N/OC2(C(=O)O)CCC2)C(=O)NC2C(=O)N3C(C(=O)[O-])=C(/C=C/C[n+]4ccc5sc(N)nc5c4)CS[C@H]23)cs1` (stereo partly drawn) [Compound I-5C, 7-[(Z)-2-(2-Aminothiazol-4-yl)-2-(1-carboxycyclobut-1-oxyimino)acetamido]-3-[(E)-3-(2-amino-5-thiazolo[4,5-c]pyridinio)-1-propen-1-yl]-3-cephem-4-carboxylate]: the MIC in assay [1] amounted to 4.4 µg/mL (≈ 6.7 µM); in assay [2], 0.15 µg/mL (≈ 0.228 µM); in assay [3], 1.3 µg/mL (≈ 1.98 µM); in assay [4], 0.14 µg/mL (≈ 0.213 µM); in assay [5] it was 0.015 µg/mL (≈ 0.0228 µM); in the assay with Ps. aeruginosa, 2.7 µg/mL (≈ 4.11 µM).

As for `C[N+]1(C/C=C/C2=C(C(=O)[O-])N3C(=O)C(NC(=O)/C(=N\OC4(C(=O)O)CCC4)c4csc(N)n4)[C@H]3SC2)CC=CC1` (stereo partly drawn) [Compound I-5F, 7-[(Z)-2-(2-Aminothiazol-4-yl)-2-(1-carboxycyclobut-1-oxyimino)acetamido]-3-[(E)-3-(1-methyl-3-pyrrolinio)-1-propen-1-yl]-3-cephem-4-carboxylate], the MIC is 4 µg/mL (≈ 6.8 µM) in assay [1]; 0.22 µg/mL (≈ 0.374 µM) in assay [2]; 1.5 µg/mL (≈ 2.55 µM) in assay [3]; 0.17 µg/mL (≈ 0.289 µM) in assay [4]; 0.037 µg/mL (≈ 0.0629 µM) in assay [5]; 2.4 µg/mL (≈ 4.08 µM) in the assay on Ps. aeruginosa.

For `Nc1cc[n+](C/C=C/C2=C(C(=O)[O-])N3C(=O)C(NC(=O)/C(=N\OC4(C(=O)O)CCC4)c4csc(N)n4)C3SC2)cc1` (stereo not drawn) [Compound I-5I, 7-[(Z)-2-(2-Aminothiazol-4-yl)-2-(1-carboxycyclobut-1-oxyimino)acetamido]-3-[(E)-3-(4-aminopyridino)-1-propen-1-yl]-3-cephem-4-carboxylate], the MIC in assay [1] was 4.7 µg/mL (≈ 7.84 µM); in assay [2], 0.2 µg/mL (≈ 0.334 µM); in assay [3] it was 1.6 µg/mL (≈ 2.67 µM); in assay [4], 0.22 µg/mL (≈ 0.367 µM); in assay [5] it was 0.019 µg/mL (≈ 0.0317 µM); with Ps. aeruginosa, 3.5 µg/mL (≈ 5.84 µM).
